# Results reported in ChEMBL document CHEMBL6087472, “Development and Discovery of a Selective Degrader of Casein Kinases 1 δ/ε” (J Med Chem, 2025).
# Activity calls are given as the source filed them. No cut-off for these calls is given here.
# Experiments:
# [1] = molecular target: T1, von Hippel-Lindau disease tumor suppressor/Casein kinase I isoform delta (Homo sapiens, UniProt P48730+P40337); test: PROTAC activity at VHL/full length N-terminal Nano-luc fused CK1 delta (unknown origin) transfected in HEK293T cells incubated for 2 hrs followed by substrate addition by NanoBRET target engagement assay; format: cell-based
# [2] = molecular target: T2, von Hippel-Lindau disease tumor suppressor/Casein kinase I isoform alpha (Homo sapiens) (UniProt P48729+P40337); test: PROTAC activity at VHL/Hibit-fused CK1 alpha in human MV4-11 cells assessed as degradation of CK1-alpha incubated for 6 hrs by Nano-Glo HiBiT assay relative to control; format: cell-based
# [3] = molecular target: T1, von Hippel-Lindau disease tumor suppressor/Casein kinase I isoform delta; test: PROTAC activity at VHL/Hibit-fused CK1 delta in human MV4-11 cells assessed as degradation of CK1-delta at 10 nM incubated for 6 hrs by Nano-Glo HiBiT assay; format: cell-based
# [4] = molecular target: T2, von Hippel-Lindau disease tumor suppressor/Casein kinase I isoform alpha (Homo sapiens); test: PROTAC activity at VHL/CK1 alpha (unknown origin) endogenously expressed in HEK293 cells assessed as degradation of CK1-alpha at 10 to 30 uM incubated for 6 hrs by Western blot analysis; format: cell-based; settings: dose 10-30 µM
# [5] = molecular target: T3, von Hippel-Lindau disease tumor suppressor/Casein kinase I isoform epsilon (Homo sapiens) (UniProt P49674+P40337); test: PROTAC activity at VHL/Hibit-fused CK1 epsilon in human MV4-11 cells assessed as degradation of CK1 epsilon at 5 to 10 uM incubated for 6 hrs by Western blot analysis; format: cell-based; settings: dose 5-10 µM
# [6] = molecular target: T1, von Hippel-Lindau disease tumor suppressor/Casein kinase I isoform delta; test: PROTAC activity at VHL/CK1 delta in HEK293 cells assessed as induction of degradation of CK1 delta by measuring maximum efficacy at 5 to 10 uM measured after 6 hrs by Western blot analysis relative to control; format: cell-based; settings: dose 5-10 µM
# MV4-11 = test: Cytotoxicity in human MV4-11 cells at 10 uM measured after 72 hrs by alamar blue assay; format: functional, cell-based
# [7] = molecular target: T1, von Hippel-Lindau disease tumor suppressor/Casein kinase I isoform delta; test: PROTAC activity at VHL/CK1 delta in HEK293 cells assessed as induction of degradation of CK1 delta measured after 6 hrs by Western blot analysis; format: cell-based; settings: dose 0.01-30 µM
# [8] = molecular target: T3, von Hippel-Lindau disease tumor suppressor/Casein kinase I isoform epsilon (Homo sapiens); test: PROTAC activity at VHL/CK1 epsilon in HEK293 cells assessed as induction of degradation of CK1 epsilon measured after 6 hrs by Western blot analysis; format: cell-based; settings: dose 0.01-30 µM
# [9] = molecular target: T1, von Hippel-Lindau disease tumor suppressor/Casein kinase I isoform delta; test: PROTAC activity at VHL/CK1 delta in HEK293 cells assessed as induction of degradation of CK1 delta at 0.3 to 1.0 uM measured after 6 hrs by Western blot analysis relative to control; format: cell-based; settings: dose 0.3-1 µM
# HEK293 = test: Effect on DVL3 phosphorylation in human HEK293 cells at 1 uM measured after 6 hrs by Western blot analysis; format: functional, cell-based
# [10] = molecular target: T3, von Hippel-Lindau disease tumor suppressor/Casein kinase I isoform epsilon (Homo sapiens); test: PROTAC activity at VHL/CK1 epsilon in HEK293 cells assessed as induction of degradation of CK1 epsilon at 3 uM measured after 1 hrs by Western blot analysis; format: cell-based
# [11] = molecular target: T3, von Hippel-Lindau disease tumor suppressor/Casein kinase I isoform epsilon (Homo sapiens); test: PROTAC activity at VHL/CK1 epsilon in HEK293 cells assessed as induction of degradation of CK1 epsilon at 3 uM measured after 6 hrs by Western blot analysis relative to control; format: cell-based
# [12] = molecular target: T2, von Hippel-Lindau disease tumor suppressor/Casein kinase I isoform alpha (Homo sapiens); test: PROTAC activity at VHL/CK1 alpha in human MV4-11 cells assessed as induction of degradation of CK1 alpha by measuring maximum efficacy at 2.5 uM measured after 12 hrs by HiBit assay relative to control; format: cell-based
# [13] = molecular target: T3, von Hippel-Lindau disease tumor suppressor/Casein kinase I isoform epsilon (Homo sapiens); test: PROTAC activity at VHL/CK1 epsilon in human U87 cells assessed as induction of degradation of CK1 epsilon at 1 uM measured after 6 hrs; format: cell-based
# [14] = molecular target: T2, von Hippel-Lindau disease tumor suppressor/Casein kinase I isoform alpha (Homo sapiens); test: PROTAC activity at VHL/CK1 alpha in human U87 cells assessed as induction of degradation of CK1 alpha at 1 uM measured after 6 hrs; format: cell-based
# [15] = molecular target: T1, von Hippel-Lindau disease tumor suppressor/Casein kinase I isoform delta; test: PROTAC activity at VHL/CK1 delta in human MDA-MB-231 cells assessed as induction of degradation of CK1 delta by measuring maximum efficacy at 1 uM measured after 6 hrs relative to control; format: cell-based
# [16] = molecular target: T3, von Hippel-Lindau disease tumor suppressor/Casein kinase I isoform epsilon (Homo sapiens); test: PROTAC activity at VHL/CK1 epsilon in human MDA-MB-231 cells assessed as induction of degradation of CK1 epsilon by measuring maximum efficacy at 1 uM measured after 6 hrs relative to control; format: cell-based
# [17] = molecular target: T1, von Hippel-Lindau disease tumor suppressor/Casein kinase I isoform delta; test: PROTAC activity at VHL/CK1 delta in human U87 cells assessed as induction of degradation of CK1 delta by measuring maximum efficacy at 1 uM measured after 6 hrs relative to control; format: cell-based
# [18] = molecular target: T3, von Hippel-Lindau disease tumor suppressor/Casein kinase I isoform epsilon (Homo sapiens); test: PROTAC activity at VHL/CK1 epsilon in human U87 cells assessed as induction of degradation of CK1 epsilon by measuring maximum efficacy at 1 uM measured after 6 hrs relative to control; format: cell-based
# [19] = molecular target: T1, von Hippel-Lindau disease tumor suppressor/Casein kinase I isoform delta; test: PROTAC activity at VHL/HiBit fused CK1 delta in human MV4-11 cells assessed as fold change at 10 uM measured after 6 hrs in presence of MLN4924 by Nano-Glo HiBit assay; format: cell-based
# [20] = molecular target: T1, von Hippel-Lindau disease tumor suppressor/Casein kinase I isoform delta; test: PROTAC activity at VHL/HiBit fused CK1 delta in human MV4-11 cells assessed as fold change at 10 uM measured after 6 hrs in presence of 1 uM of MU1742 by Nano-Glo HiBit assay; format: cell-based
# [21] = molecular target: T1, von Hippel-Lindau disease tumor suppressor/Casein kinase I isoform delta; test: PROTAC activity at VHL/HiBit fused CK1 delta in human MV4-11 cells assessed as fold change at 0.63 uM measured after 6 hrs in presence of 10 uM of MU1742 by Nano-Glo HiBit assay; format: cell-based
# [22] = molecular target: T1, von Hippel-Lindau disease tumor suppressor/Casein kinase I isoform delta; test: PROTAC activity at VHL/HiBit fused CK1 delta in human MV4-11 cells assessed as fold change at 0.63 uM measured after 6 hrs in presence of 1 uM of MU1742 by Nano-Glo HiBit assay; format: cell-based
# [23] = molecular target: T2, von Hippel-Lindau disease tumor suppressor/Casein kinase I isoform alpha (Homo sapiens); test: PROTAC activity at VHL/CK1 alpha in human HEK293 cells at 0.625 to 10 uM in presence of MU1742 by Western blot analysis; format: cell-based; settings: dose 0.625-10 µM
# [24] = molecular target: T1, von Hippel-Lindau disease tumor suppressor/Casein kinase I isoform delta; test: PROTAC activity at VHL/CK1 delta in human HEK293 cells assessed as degradation of CK1-delta at 3 to 20 uM incubated overnight followed by compound washout and measured after 1 hr by Nano-Glo HiBiT assay; format: cell-based; settings: dose 3-20 µM
# [25] = molecular target: T3, von Hippel-Lindau disease tumor suppressor/Casein kinase I isoform epsilon (Homo sapiens); test: PROTAC activity at VHL/CK1 epsilon in human HEK293 cells assessed as degradation of CK1 epsilon at 3 to 20 uM incubated overnight followed by compound washout and measured after 1 hr by Nano-Glo HiBiT assay; format: cell-based; settings: dose 3-20 µM
# [26] = molecular target: T1, von Hippel-Lindau disease tumor suppressor/Casein kinase I isoform delta; test: PROTAC activity at VHL/Hibit-fused CK1 delta in human MV4-11 cells assessed as half life at 2.5 uM measured upto 12 hrs in presence of cycloheximide by Nano-Glo HiBiT assay (reference value: 3 hrs); format: cell-based
# [27] = molecular target: T1, von Hippel-Lindau disease tumor suppressor/Casein kinase I isoform delta; test: PROTAC activity at VHL/CK1 delta in HEK293 cells assessed as induction of degradation of CK1 delta at upto 20 uM pretreated with LGK974 followed by compound addition and measured after 6 hrs by Western blot analysis; format: cell-based
# [28] = molecular target: Casein kinase I isoform delta (Homo sapiens) (UniProt P48730); test: Binding affinity to […] in human HEK293 cells assessed as target engagement at >3 uM; format: cell-based
# Chain of Casein kinase I isoform delta (Homo sapiens) (P48730 whole entry, looked up, canonical isoform): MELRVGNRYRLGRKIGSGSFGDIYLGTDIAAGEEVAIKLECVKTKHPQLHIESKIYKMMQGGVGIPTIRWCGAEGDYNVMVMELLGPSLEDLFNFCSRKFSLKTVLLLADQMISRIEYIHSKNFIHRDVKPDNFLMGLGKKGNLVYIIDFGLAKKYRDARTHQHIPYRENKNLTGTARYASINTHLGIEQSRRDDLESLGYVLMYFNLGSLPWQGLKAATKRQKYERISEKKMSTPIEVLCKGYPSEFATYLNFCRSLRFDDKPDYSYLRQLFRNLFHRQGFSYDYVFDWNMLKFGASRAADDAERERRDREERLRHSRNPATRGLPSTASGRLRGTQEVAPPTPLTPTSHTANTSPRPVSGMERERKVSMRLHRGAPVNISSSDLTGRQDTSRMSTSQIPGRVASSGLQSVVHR
# T2 sequence (P40337 whole entry, looked up, the tested form may be a part, canonical isoform): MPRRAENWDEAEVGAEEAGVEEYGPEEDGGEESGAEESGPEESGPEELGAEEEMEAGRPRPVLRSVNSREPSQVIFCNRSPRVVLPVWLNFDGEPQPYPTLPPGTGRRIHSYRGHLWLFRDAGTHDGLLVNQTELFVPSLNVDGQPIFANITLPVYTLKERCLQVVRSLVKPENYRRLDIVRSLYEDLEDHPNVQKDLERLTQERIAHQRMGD
# T2 sequence (P48729 whole entry, looked up, the tested form may be a part, canonical isoform): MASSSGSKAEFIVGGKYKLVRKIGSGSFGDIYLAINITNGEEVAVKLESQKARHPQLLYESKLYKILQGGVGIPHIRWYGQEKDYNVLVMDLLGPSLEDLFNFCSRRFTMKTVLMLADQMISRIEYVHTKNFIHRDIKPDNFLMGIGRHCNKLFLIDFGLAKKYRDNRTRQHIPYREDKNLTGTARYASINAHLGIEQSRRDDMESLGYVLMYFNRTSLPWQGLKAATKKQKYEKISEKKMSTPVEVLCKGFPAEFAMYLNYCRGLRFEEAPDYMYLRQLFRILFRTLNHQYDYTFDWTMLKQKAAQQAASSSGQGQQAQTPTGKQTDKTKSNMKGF
# T3 sequence (P40337 whole entry, looked up, the tested form may be a part, canonical isoform): as the sequence (P40337 whole entry, looked up, the tested form may be a part, canonical isoform) above
# T3 sequence (P49674 whole entry, looked up, the tested form may be a part, canonical isoform): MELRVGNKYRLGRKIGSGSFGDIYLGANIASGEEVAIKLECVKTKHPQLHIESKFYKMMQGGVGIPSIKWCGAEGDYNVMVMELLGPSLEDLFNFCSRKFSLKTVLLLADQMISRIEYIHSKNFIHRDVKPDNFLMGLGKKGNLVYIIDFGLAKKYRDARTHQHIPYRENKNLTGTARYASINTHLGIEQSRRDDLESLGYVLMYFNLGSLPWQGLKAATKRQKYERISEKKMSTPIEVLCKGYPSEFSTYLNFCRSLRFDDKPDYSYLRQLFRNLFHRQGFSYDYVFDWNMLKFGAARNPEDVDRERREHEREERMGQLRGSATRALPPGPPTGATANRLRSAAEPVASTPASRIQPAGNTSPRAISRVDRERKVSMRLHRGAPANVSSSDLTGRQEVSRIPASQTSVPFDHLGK
# T1 sequence (P40337 whole entry, looked up, the tested form may be a part, canonical isoform): as the sequence (P40337 whole entry, looked up, the tested form may be a part, canonical isoform) above
# T1 sequence (P48730 whole entry, looked up, the tested form may be a part, canonical isoform): as the sequence (P48730 whole entry, looked up, canonical isoform) above
smiles,measurement,setting,value
Cc1ncsc1-c1ccc(CNC(=O)[C@H]2C[C@H](O)CN2C(=O)[C@H](NC(=O)CCCCCCC(=O)N2CCC(F)(Cn3cnc(-c4ccc(F)cn4)c3-c3ccnc4[nH]ccc34)CC2)C(C)(C)C)cc1,Emax,[1],3.2%
same,Emax,[2],35.1%
same,Activity,[3],Active
same,Activity,[4],Active
same,Activity,[5],Active
same,Emax,[6],> 50%
same,Activity,MV4-11,Active; Compound Showed Milder Cytotoxic Effect
same,Activity,[7],Dose-dependent-effect
same,Activity,[8],Dose-dependent-effect
same,Activity,[9],100%
same,Activity,HEK293,Active
same,Activity,[10],Active
same,Activity,[11],100%
same,Emax,[12],20%
same,Activity,[13],Active
same,Activity,[14],inactive
same,Emax,[15],75%
same,Emax,[16],75%
same,Emax,[17],> 50%
same,Emax,[18],> 50%
same,fold change (FC),[19],0.93
same,fold change (FC),[20],0.67
same,fold change (FC),[21],1.2
same,fold change (FC),[22],1.19
same,Activity,[23],inactive
same,Activity,[24],inactive
same,Activity,[25],inactive
same,T1/2,[26],40 min
same,Activity,[27],Active
same,Activity,[28],Active
